Data published in patent US7371571B2, “Recombinant mycobacteria overexpressing D-alanine ligase gene and uses therefore” (priority 2002, dated 2008).
pKi: −log10 of the molar value. ≈ marks a conversion by molar mass, not a printed value. Where “and” joins values, the source holds several entries; their conditions need not be identical. Equal entries are not always repeated. Entries after “also recorded” stand apart in the source; their conditions may differ. Where two headings read alike, the source gives them in different places.

Legend:
M. smegmatis mc^2155 [1] = assay: MIC by microdilution method; type: cell-based, Mycobacterium smegmatis
M. smegmatis GPM2 = assay: MIC by microdilution method; type: cell-based, Mycobacterium smegmatis; conditions: Mycolicibacterium smegmatis
[2] = tested on: M. smegmatis GPM14 (overproducing Alr); assay: MIC by microdilution method; type: cell-based, Mycobacterium smegmatis; conditions: for MIC: Mycolicibacterium smegmatis, 48 h
Description: (§1) MICs were determined by a microdilution method described previously (Takiff et al., 1996) with minor modifications. Briefly, M. smegmatis cells were grown in M-ADC-TW to mid-exponential phase (optical density at 600 nm, 0.6 to 1.0). Approximately 10^5 CFU in 0.1 ml were inoculated in triplicate onto 96-well microplates containing serial twofold dilutions of inhibitory compounds. Plates were incubated at 37° C. and examined daily. The MIC was defined as the minimal concentration of the drug or inhibitor that prevented visible bacterial growth after 48 h. Each MIC represents the consistent result from at least three independent cultures. Amikacin, DCS, βCDA, ethambutol, and vancomycin (all from Sigma) were prepared in sterile deionized water. Rifabutin (Amersham Pharmacia) was prepared in dimethyl sulfoxide (Fisher Scientific, St. Louis, Mo.). All further dilutions of each antibiotic were prepared in growth medium. Inhibition of colony formation by DCS was evaluated as described previously in Caceres et al., (1997), which is incorporated herein by reference. Appropriate dilutions of exponentially growing M. smegmatis cells were plated onto agar containing 0 to 1,200 μg of DCS ml^−1. Colonies were counted after 5 days of incubation at 37° C. Statistical analysis was conducted using the SAS general linear model procedure (SAS Institute, Cary, N.C.).

[3] = tested on: M. smegmatis GPM259 (overproducing Ddl); assay: MIC by microdilution method; type: cell-based, Mycobacterium smegmatis; conditions: for MIC: Mycolicibacterium smegmatis, 48 h
Description: as §1

[4] = tested on: M. smegmatis GPM260 (overproducing both Alr and Ddl); assay: MIC by microdilution method; type: cell-based, Mycobacterium smegmatis; conditions: for MIC: Mycolicibacterium smegmatis, M-ADC-TW, 48 h; for MIC / susceptibility of GPM260 compared with parent strain GPM14: strain GPM260
Description: as §1

[5] = tested on: M. smegmatis GPM265 (overproducing M. tuberculosis Ddl); assay: microbe, parasite or virus in culture; type: cell-based, Mycobacterium smegmatis; conditions: for MIC: Mycolicibacterium smegmatis, 48 h
M. smegmatis Ddl = M. smegmatis Ddl (Mycolicibacterium smegmatis, UniProt Q9ZGN0); type: biochemical, Mycobacterium smegmatis
Sequence of M. smegmatis Ddl (Q9ZGN0 whole entry): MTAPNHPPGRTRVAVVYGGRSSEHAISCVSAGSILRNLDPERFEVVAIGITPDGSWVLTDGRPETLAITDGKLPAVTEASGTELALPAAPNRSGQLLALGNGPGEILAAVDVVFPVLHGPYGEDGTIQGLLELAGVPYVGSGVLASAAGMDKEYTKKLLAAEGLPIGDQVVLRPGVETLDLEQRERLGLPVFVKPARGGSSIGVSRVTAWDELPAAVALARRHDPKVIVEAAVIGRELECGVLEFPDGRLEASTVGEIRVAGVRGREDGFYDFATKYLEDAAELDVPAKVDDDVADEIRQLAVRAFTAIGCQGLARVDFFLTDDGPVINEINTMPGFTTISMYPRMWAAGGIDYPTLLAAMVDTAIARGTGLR

M. tuberculosis Ddl = target: T1, M. tuberculosis Ddl (Mycobacterium tuberculosis, UniProt P9WP31); type: biochemical
T1 sequence (P9WP31 1-373): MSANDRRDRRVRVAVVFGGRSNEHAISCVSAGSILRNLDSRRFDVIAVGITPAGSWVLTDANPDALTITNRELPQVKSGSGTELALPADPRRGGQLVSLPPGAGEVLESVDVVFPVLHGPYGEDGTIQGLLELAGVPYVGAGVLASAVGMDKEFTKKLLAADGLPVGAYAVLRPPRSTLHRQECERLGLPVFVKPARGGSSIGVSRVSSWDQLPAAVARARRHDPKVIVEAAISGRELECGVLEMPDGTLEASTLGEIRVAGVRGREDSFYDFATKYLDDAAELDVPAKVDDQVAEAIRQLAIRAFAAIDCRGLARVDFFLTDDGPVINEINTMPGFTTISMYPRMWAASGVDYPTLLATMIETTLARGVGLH

M. smegmatis strains [6] = assay: Inhibition of colony formation on agar; type: cell-based, Mycobacterium smegmatis; conditions: agar with 0 to 1,200 μg of DCS ml^−1, 5 days
Description: as §1

Alr = conditions: Streptococcus faecalis purified Alr; cited from earlier work
Ddl = target: T2, Ddl (UniProt Q47758); conditions: Streptococcus faecalis purified Ddl; cited from earlier work
T2 sequence (Q47758 1-348): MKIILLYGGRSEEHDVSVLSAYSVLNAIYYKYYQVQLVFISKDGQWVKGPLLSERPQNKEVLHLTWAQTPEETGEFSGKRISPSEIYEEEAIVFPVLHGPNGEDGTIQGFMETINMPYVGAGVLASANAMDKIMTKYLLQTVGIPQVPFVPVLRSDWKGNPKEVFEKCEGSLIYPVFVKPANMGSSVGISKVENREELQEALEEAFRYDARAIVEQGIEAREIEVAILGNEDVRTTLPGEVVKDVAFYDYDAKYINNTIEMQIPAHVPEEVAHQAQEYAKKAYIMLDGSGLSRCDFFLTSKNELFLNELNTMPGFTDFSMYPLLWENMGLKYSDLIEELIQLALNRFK

M. smegmatis mc^2155 [7] = assay: Intracellular alanine pools by reverse-phase HPLC; conditions: 75 μg ml^−1 DCS, 2 h
Description: (§2) M. smegmatis cells were grown in minimal medium until exponential phase and split into two subcultures, and DCS was added to a final concentration of 75 μg ml^−1 to one of the subcultures. After 2 h of incubation, cells were harvested at 4° C. by centrifugation, washed twice with ice-cold double-distilled water, and concentrated 50-fold. Cells were sonicated in a salt-ice-water bath with a Vibra-Cell model VC600 sonicator (Sonic and Materials, Inc., Danbury, Conn.) for 10 min at 80% power output and 50% duty cycle. The lysate was centrifuged at 4° C. for 30 min at 30,000×g to remove bacterial debris. Protein was removed from the supernatant by serial passages through YM-10 and YM-3 Centricon concentrators (Millipore Corp., Bedford, Mass.). Determination of the abundance of individual amino acids was performed at the Amino Acid Geochronology Laboratory of Northern Arizona University (Flagstaff, Ariz.) by a reverse-phase high-performance liquid chromatography (HPLC) procedure described previously (Kaufman and Manley, 1998). This procedure is able to detect nine pairs of L- and D-amino acids in the subpicomole range. […] Thus, the abundance of each amino acid was calculated as the area under the corresponding peak and expressed relative to this pool.

M. smegmatis GPM14 = assay: Intracellular alanine pools by reverse-phase HPLC; conditions: 75 μg ml^−1 DCS, 2 h
Description: as §2

M. smegmatis GPM259 = assay: Intracellular alanine pools by reverse-phase HPLC; conditions: 75 μg ml^−1 DCS, 2 h
Description: as §2

M. smegmatis GPM260 = assay: Intracellular alanine pools by reverse-phase HPLC; conditions: 75 μg ml^−1 DCS, 2 h
Description: as §2

M. smegmatis strains [8] = assay: Drug susceptibility compared across strains; type: cell-based, Mycobacterium smegmatis; conditions: mc^2155, GPM259, GPM265, GPM14

NC1CONC1=O (stereo not drawn) [DCS, 4-amino-3-isoxazolidinone]
MIC (M. smegmatis mc^2155 [1]; Mycolicibacterium smegmatis, strain mc^2155, M-ADC-TW, 48 h, read-out: MIC): 75 mg/L (≈ 735 µM) | MIC (M. smegmatis mc^2155 [1]; strain mc^2155, M-ADC-TW, 48 h): 75.0 mg/L (≈ 735 µM) | MIC (M. smegmatis GPM2; strain GPM2, M-ADC-TW, 48 h, read-out: MIC): 75 mg/L (≈ 735 µM) | MIC [2]: 300 mg/L (≈ 2940 µM) | MIC [3]: 150 mg/L (≈ 1470 µM) | MIC relative to that for mc^2155 ([3]; strain GPM259): twofold greater | MIC [4]: 600 mg/L (≈ 5880 µM) | level of resistance ([4]; strain overexpressing both the alr and ddl genes): eightfold-higher | MIC relative to that for mc^2155 [5]: twofold greater | MIC [5]: 150 mg/L (≈ 1470 µM) | Ddl activity inhibited (M. smegmatis Ddl): 10 to 15% | Ddl enzyme activity inhibited (M. smegmatis Ddl): Approximately 50% | inhibition of Ddl enzyme (M. smegmatis Ddl): inhibited by DCS in a concentration-dependent manner | inhibition of Ddl enzyme (M. tuberculosis Ddl): inhibited by DCS in a concentration-dependent manner | percentage of inhibition higher than in mc^2155 and GPM259 extracts (M. tuberculosis Ddl): approximately 10% | resistance of GPM259 and GPM265 on solid agar (M. smegmatis strains [6]): more resistant to DCS than the wild-type mc^2155 but less resistant than the Alr-overproducing strain GPM14 | pKi (Alr): 4.70 | pKi (Ddl): 3.05 | excess of L- over D-alanine (M. smegmatis mc^2155 [7]): eightfold | increase of L-alanine-to-D-alanine molar ratio (M. smegmatis mc^2155 [7]; versus untreated): 3.5 fold | excess of L- over D-alanine (M. smegmatis GPM14): three-fold | excess of L-alanine (M. smegmatis GPM259): 18- to 20 fold and ~20 fold | excess of L-alanine (M. smegmatis GPM260): 18- to 20 fold and ~20 fold

NCC[C@H](O)C(=O)N[C@@H]1C[C@H](N)[C@@H](O[C@H]2O[C@H](CN)[C@@H](O)[C@H](O)[C@H]2O)[C@H](O)[C@H]1O[C@H]1O[C@H](CO)[C@@H](O)[C@H](N)[C@H]1O [amikacin]
susceptibility of GPM260 compared with parent strain GPM14 [4]: identical | susceptibilities of strains overproducing Alr and/or Ddl compared with wild type (M. smegmatis strains [8]): identical

CC[C@@H](CO)NCCN[C@@H](CC)CO [ethambutol]
susceptibility of GPM260 compared with parent strain GPM14 [4]: identical | susceptibilities of strains overproducing Alr and/or Ddl compared with wild type (M. smegmatis strains [8]): identical

CO[C@H]1/C=C/O[C@@]2(C)Oc3c(C)c(O)c4c(c3C2=O)C2=NC3(CCN(CC(C)C)CC3)NC2=C(NC(=O)/C(C)=C\C=C\[C@H](C)[C@H](O)[C@@H](C)[C@@H](O)[C@@H](C)[C@H](OC(C)=O)[C@@H]1C)C4=O [rifabutin]
susceptibility of GPM260 compared with parent strain GPM14 [4]: identical | susceptibilities of strains overproducing Alr and/or Ddl compared with wild type (M. smegmatis strains [8]): identical

CN[C@H](CC(C)C)C(=O)N[C@H]1C(=O)N[C@@H](CC(N)=O)C(=O)N[C@H]2C(=O)N[C@H]3C(=O)N[C@H](C(=O)N[C@H](C(=O)O)c4cc(O)cc(O)c4-c4cc3ccc4O)[C@H](O)c3ccc(c(Cl)c3)Oc3cc2cc(c3O[C@@H]2O[C@H](CO)[C@@H](O)[C@H](O)[C@H]2O[C@H]2C[C@](C)(N)[C@H](O)[C@H](C)O2)Oc2ccc(cc2Cl)[C@H]1O [vancomycin]
susceptibility of GPM260 compared with parent strain GPM14 [4]: identical | susceptibilities of strains overproducing Alr and/or Ddl compared with wild type (M. smegmatis strains [8]): does not have an effect on the susceptibility; also recorded: identical

N[C@H](CCl)C(=O)O [βCDA, β-chloro-D-alanine]
MIC (M. smegmatis mc^2155 [1]; Mycolicibacterium smegmatis, MC^2155, 48 h): 25 mg/L (≈ 202 µM) | MIC (M. smegmatis GPM2; GPM2, 48 h): 25 mg/L (≈ 202 µM) | MIC [2]: 100 mg/L (≈ 809 µM) | MIC relative to those for strains with wild-type levels of Alr ([2]; strain GPM14): fourfold higher | MIC ([3]; strain GPM259, M-ADC-TW, read-out: MIC): 25 mg/L (≈ 202 µM) | MIC [4]: 100 mg/L (≈ 809 µM) | susceptibility of GPM260 compared with parent strain GPM14 [4]: identical | MIC [5]: 25 mg/L (≈ 202 µM)
